Source: ChEMBL document CHEMBL4184122, “Chebulinic acid attenuates glutamate-induced HT22 cell death by inhibiting oxidative stress, calcium influx and MAPKs phosphorylation” (2018)
The source made the active and inactive calls. The calls are words filed in the database; no cut-off is given here.

Test system: HT-22
Assay: Neuroprotective activity against glutamate induced cell death in mouse HT22 cells assessed as increase in cell viability at 1 to 5 uM after 24 hrs by MTT assay
Assay type: functional, cell-based

Q: How did the Activity turn out when `CC(=O)N[C@@H](CS)C(=O)O` was run?
A: Its Activity is “Active”.
